# Data taken from patent publication US20030163846A1, “Process for the genetic modification of a plant” (priority 2000, published 2003).
# T1: AtSUT2 (Arabidopsis thaliana, UniProt O80605)
# T1 construct: expressed in transfected cells; host or cells: Saccharomyces cerevisiae SEY6210, expression vector pDR196
# T1 sequence (O80605 1-594): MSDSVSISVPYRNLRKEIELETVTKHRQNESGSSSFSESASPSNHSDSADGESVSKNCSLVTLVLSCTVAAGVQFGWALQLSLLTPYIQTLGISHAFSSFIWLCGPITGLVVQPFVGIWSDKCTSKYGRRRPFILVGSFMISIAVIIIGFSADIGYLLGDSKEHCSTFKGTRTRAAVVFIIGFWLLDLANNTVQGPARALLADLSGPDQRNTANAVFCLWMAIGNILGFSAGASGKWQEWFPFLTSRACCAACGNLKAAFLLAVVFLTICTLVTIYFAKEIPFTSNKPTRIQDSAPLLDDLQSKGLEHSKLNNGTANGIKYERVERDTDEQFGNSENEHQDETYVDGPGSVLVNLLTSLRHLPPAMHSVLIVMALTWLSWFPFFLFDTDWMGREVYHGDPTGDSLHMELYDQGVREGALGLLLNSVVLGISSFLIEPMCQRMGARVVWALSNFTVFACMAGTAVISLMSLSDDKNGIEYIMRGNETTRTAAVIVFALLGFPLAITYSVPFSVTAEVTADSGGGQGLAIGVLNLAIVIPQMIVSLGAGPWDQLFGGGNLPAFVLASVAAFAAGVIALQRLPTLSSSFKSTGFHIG
# Key:
# AtSUT2 = target: T1, AtSUT2; assay: substrate specificity and inhibition of saccharose uptake by AtSUT2 in yeast; format: cell-based; settings: for competition with 14C-saccharose uptake: 1 mM saccharose, competitively with other sugars and sugar alcohols
# Description: The saccharose uptake by AtSUT2 was pH-dependent, and the highest uptake rates were measured at a pH of 4.0. […] To determine the substrate specificity of AtSUT2, the saccharose uptake (1 mM saccharose) was measured competitively with other sugars and sugar alcohols.
# SUT4 = assay: stimulation/inhibition of uptake of 14C-saccharose by means of SUT4 (FIG. 5C); format: cell-based
# Description: (§1) For the saccharose uptake tests, yeast was cultivated in a liquid minimal medium containing glucose, up to an OD623 of approximately 0.8. Cells were collected by means of centrifugation, washed in 25 mM sodium phosphate buffer (pH 5.5), and suspended in the same buffer at an OD623 of 20. The uptake tests were initiated by adding glucose ending at a final concentration of 10 mM to the yeast cells one minute before adding ^14C-saccharose. Following incubation at 30° C. while stirring, cells were collected by means of vacuum filtration on fiberglass filters (1-5 minutes), washed twice with 4 mL 10 mM saccharose (at the freezing point), and the radioactivity was determined using a liquid scintillation counter. […] A significant difference compared with the vector controls is apparent.
# The stimulation of the uptake of ^14C-saccharose by means of SUT4 through glucose and the inhibition through an electron transport inhibitor (antimycin A and the protonophore CCCP is shown in FIG. 5C).
# leaf blades = settings: high affinity/low capacity system, cited from earlier work
# [1] = 14C-saccharose uptake tests in yeast expressing SUT4 (SUSY7/ura3); format: cell-based
# Description: The yeast strain SUSY7/ura3 is a modified version of SUSY7 (Riesmeier et al., EMBO J. (1992) 11, 4705-4713), which contains a deletion of a portion of the URA3 gene and, as a result, permits selection for uracil auxotrophy. Media that contained the 1.7 g/L yeast nitrogen base without amino acids (Difco), 2% saccharose, 20 mg/L tryptophane, and 1.5% agarose, pH 5.0, were used to analyze yeast growth on a saccharose medium.
# as §1
# Data for the kinetic analysis were obtained for SUT4 from a nonlinear regression of the uptake measurements using the Michaelis-Menten equation. Km was represented as an average of eight determinations using three independent transformants±standard deviation. The KM value for saccharose that was determined was 11.6±0.6 mM (at a pH of 5.5) and 5.9±0.8 mM (at a pH of 4.0) for SUT4 from arabidopsis. For SUT4 from Solanum tuberosum the KM value was 6.0±1.2 mM (pH 4.0) (see FIG. 5B).
# [2] = 14-C saccharose uptake tests in yeast strain SEY6210 expressing AtSUT2, StSUT1 or chimeric proteins; format: cell-based; settings: for Km: AtSUT2 at a pH of 4
# Description: It was shown that the saccharose uptake by yeast cells that express AtSUT2 was linear in the first five minutes of the test. During this period, 0.1 nmol saccharose accumulated in 10^8 cells. […] By contrast, the transport rate with StSUT1-expressing cells was 400 times greater than with AtSUT2-expressing cells. […] Using the Michaelis-Menten equation and a nonlinear regression analysis, a KM value of 11.7±1.2 mM
# Table: KM values for saccharose of the saccharose transporters StSUT1 and AtSUT2 as well as of chimeric proteins in which the N-terminal regions or central cytoplasmic loops are exchanged between the two transporters. The values were determined as mean values±standard errors from at least three different measurements. Different letters indicate significant differences (p<0.05).
molecule,measurement,setting,value
N#CC(C#N)=NNc1cccc(Cl)c1 [CCCP],inhibition of saccharose transport by means of AtSUT2,AtSUT2,inhibited
same,effect on uptake of 14C-saccharose by means of SUT4,SUT4,inhibition
OC[C@@H](O)[C@@H](O)[C@H](O)[C@H](O)CO [mannitol],competition with 14C-saccharose uptake,AtSUT2,only the saccharose and to a lesser extent maltose were able to compete significantly
OC[C@@H](O)[C@@H](O)[C@H](O)[C@H](O)CO[C@H]1O[C@H](CO)[C@@H](O)[C@H](O)[C@H]1O [glucomannitol],competition with 14C-saccharose uptake,AtSUT2,only the saccharose and to a lesser extent maltose were able to compete significantly
O=C[C@H](O)[C@@H](O)[C@@H](O)[C@H](O)CO [galactose],competition with 14C-saccharose uptake,AtSUT2,only the saccharose and to a lesser extent maltose were able to compete significantly
OC[C@H]1O[C@H](OC[C@H]2OC(O)(CO)[C@@H](O)[C@@H]2O)[C@H](O)[C@@H](O)[C@@H]1O (some centres unmarked) [isomaltulose],competition with 14C-saccharose uptake,AtSUT2,only the saccharose and to a lesser extent maltose were able to compete significantly
OC[C@H](O)[C@@H](O)[C@H](O)[C@H](O)CO[C@H]1O[C@H](CO)[C@@H](O)[C@H](O)[C@H]1O [glucosorbitol],competition with 14C-saccharose uptake,AtSUT2,only the saccharose and to a lesser extent maltose were able to compete significantly
OC[C@H]1O[C@H](OC[C@H]2O[C@H](O[C@]3(CO)O[C@H](CO)[C@@H](O)[C@@H]3O)[C@H](O)[C@@H](O)[C@@H]2O)[C@H](O)[C@@H](O)[C@H]1O [raffinose],competition with 14C-saccharose uptake,AtSUT2,only the saccharose and to a lesser extent maltose were able to compete significantly
OC[C@@H](O)[C@@H](O)[C@H](O)[C@@H](O)CO [sorbitol],competition with 14C-saccharose uptake,AtSUT2,only the saccharose and to a lesser extent maltose were able to compete significantly
antimycin A,inhibition of saccharose transport by means of AtSUT2,AtSUT2,inhibited
same,effect on uptake of 14C-saccharose by means of SUT4,SUT4,inhibition
OC[C@H]1O[C@@H](O[C@H]2[C@H](O)[C@@H](O)C(O)O[C@@H]2CO)[C@H](O)[C@@H](O)[C@H]1O (some centres unmarked) [lactose],competition with 14C-saccharose uptake,AtSUT2,only the saccharose and to a lesser extent maltose were able to compete significantly
OC[C@H]1O[C@@](CO)(O[C@H]2O[C@H](CO)[C@@H](O)[C@H](O)[C@H]2O)[C@@H](O)[C@@H]1O [saccharose],competition with 14C-saccharose uptake,AtSUT2,able to compete significantly
same,Km,leaf blades; read-out: Km of saccharose intake,2.7 mM
same,Vmax of saccharose intake,leaf blades,0.7 nmol cm^−2 min^−1
"StSUT4: saccharose transporter SUT4 from Solanum tuberosum, amino acid sequence SEQ ID no. 28 (protein, listed as Solanum tuberosum) MPEIERHRTRHNRPAIREPVKPRVPLRLLFRVASVAGGIQFGWALQLSLLTPYVQELGIPHAWASIIWLCGPLSGLLVQPLVGHMSDKCTSRFGRRRPFIVAGAVSIMIAVLIIGFSADIGWLLGDRGEIKVRAIAAFVVGFWLLDVANNMTQGPCRALLADLTQKDHRRTRVANAYFSLFMAIGNILGFATGSYSGWFKIFPFTLNTACTINCANLKAAFIIDIIFIATTTCISISAANEQPLDPSRGSSHTREEIGESSHGQEEAFLWELFGIFKYFPGVVWVILLVTALTWIGWFPFLLFDTDWFGREIYGGEPNDGKNYSAGVRMGSLGLMLNSVLLGLTSLFMEKLCRKWGAGFTWGVSNVVMSLCFIAMLIITAVRSNIDIGQGLPPDGIVIAALVVFSILGIPLAITYSVPYALVSSRIDALGLGQGLSMGVLNLAIVFPQIVVSLGSGPWDELFGGGNSPAFVVAALSAFAGGLIAILAIPRTRVEKPKIFA",functional saccharose transporter (uptake of 14C-saccharose vs vector controls),[1]; FIG. 5A,functional saccharose transporters
same,Km,"[1]; pH 4.0, Michaelis-Menten nonlinear regression, average ± standard deviation",6 ± 1.2 mM
"AtSUT2: SUT2 from Arabidopsis thaliana, SEQ ID no. 7; low-affinity saccharose transporter, sensor and/or regulator (protein, listed as Arabidopsis thaliana) MSDSVSISVPYRNLRKEIELETVTKHRQNESGSSSFSESASPSNHSDSADGESVSKNCSLVTLVLSCTVAAGVQFGWALQLSLLTPYIQTLGISHAFSSFIWLCGPITGLVVQPFVGIWSDKCTSKYGRRRPFILVGSFMISIAVIIIGFSADIGYLLGDSKEHCSTFKGTRTRAAVVFIIGFWLLDLANNTVQGPARALLADLSGPDQRNTANAVFCLWMAIGNILGFSAGASGKWQEWFPFLTSRACCAACGNLKAAFLLAVVFLTICTLVTIYFAKEIPFTSNKPTRIQDSAPLLDDLQSKGLEHSKLNNGTANGIKYERVERDTDEQFGNSENEHQDETYVDGPGSVLVNLLTSLRHLPPAMHSVLIVMALTWLSWFPFFLFDTDWMGREVYHGDPTGDSLHMELYDQGVREGALGLLLNSVVLGISSFLIEPMCQRMGARVVWALSNFTVFACMAGTAVISLMSLSDDKNGIEYIMRGNETTRTAAVIVFALLGFPLAITYSVPFSVTAEVTADSGGGQGLAIGVLNLAIVIPQMIVSLGAGPWDQLFGGGNLPAFVLASVAAFAAGVIALQRLPTLSSSFKSTGFHIG",pH of highest uptake rates,[2],4.0
same,saccharose accumulated in 10^8 cells,"[2]; first five minutes of the test, in 10^8 cells",0.1 nmol
same,uptake of saccharose compared with yeast cells expressing empty vector pDR196,[2]; p<0.05,significantly higher
same,saccharose uptake at a pH of 6,[2]; pH of 6,no further saccharose uptake was measured
same,Vmax,[2]; table,1.5 ± 0.1 nmol saccharose min^−1 10^8 ce
same,Vmax,[2]; yeast SEY6210,1.5 nmol·min^−1 10^8 cells^−1
same,Km,[2]; yeast SEY6210,11.7 mM
"StSUT1: high-affinity saccharose transporter SUT1 from Solanum tuberosum, SEQ ID no. 23 (protein, listed as Solanum tuberosum) MENGTKREGLGKLTVSSSLQVEQPLAPSKLWKIIVVASIAAGVQFGWALQLSLLTPYVQLLGIPHKFASFIWLCGPISGMIVQPVVGYYSDNCSSRFGRRRPFIAAGAALVMIAVFLIGFAADLGHASGDTLGKGFKPRAIAVFVVGFWILDVANNMLQGPCRALLADLSGGKSGRMRTANAFFSFFMAVGNILGYAAGSYSHLFKVFPFSKTKACDMYCANLKSCFFIAIFLLLSLTTIALTLVRENELPEKDEQEIDEKLAGAGKSKVPFFGEIFGALKELPRPMWILLLVTCLNWIAWFPFFLYDTDWMAKEVFGGQVGDARLYDLGVRAGAMGLLLQSVVLGFMSLGVEFLGKKIGGAKRLWGILNFVLAICLAMTILVTKMAEKSRQHDPAGTLMGPTPGVKIGALLLFAALGIPLAATFSIPFALASIFSSNRGSGQGLSLGVLNLAIVVPQMLVSLVGGPWDDLFGGGNLPGFVVGAVAAAASAVLALTMLPSPPADAKPAVAMGGFH","KM value for saccharose, fold lower than AtSUT2",[2],10 times
same,transport rate relative to AtSUT2-expressing cells,[2],400 times
same,Vmax,[2]; table,210.2 ± 5.7 nmol saccharose min^−1 10^8 ce
same,Vmax,[2]; yeast SEY6210,210.2 nmol·min^−1 10^8 cells^−1
same,Km,[2]; yeast SEY6210,1.7 mM
